Test results from patent US20240132484A1, “BROAD SPECTRUM ANTIVIRAL COMPOUNDS TARGETING THE SKI COMPLEX” (priority 2020, published 2024).
Where “and” joins values, the source holds several entries; their conditions need not be identical. Equal entries are not always repeated. Where two headings read alike, the source gives them in different places.

Tested on: SARS2
Type: cell-based, SARS-CoV-2
Details: for Percentage Infection Relative to Appropriate DMSO Control / Infection Data: Percentage Infection Relative to Appropriate DMSO Control / Percentage Infection Relative to Appropriate DMSO Control, Mean / Infection Data, Percentage Infection Relative to Appropriate DMSO Control: avg background subtraction; for Infection Data: Percentage Infection Relative to Appropriate DMSO Control: replicate wells; for Infection Data: Average, Mean: average of Exp 1-3 (SMW475, SMW477, SMW478), n 9; for Infection Data, Average, Mean percentage infection relative to DMSO control: Average of Exp 1 (SMW491) and Exp 2 (SMW492); for Percentage Infection Relative to Appropriate DMSO Control, Mean: Average of Exp 1 and Exp 2, n=4; for Infection Data, Percentage Infection Relative to Appropriate DMSO Control: single well

SMILES: COc1ccc(CNCCc2ccccc2F)c(OCC(O)CN2CCN(C)CC2)c1 (racemic) [UMB18G]
- Percentage Infection Relative to Appropriate DMSO Control (1 uM, Exp 1 (SMW454), single wells): 79.68% and 100.00% and 102.30%
- Infection Data: Percentage Infection Relative to Appropriate DMSO Control (1 uM, Exp 1 (SMW475)): 59.52% and 81.22% and 48.39%
- Infection Data: Percentage Infection Relative to Appropriate DMSO Control (1 uM, Exp 2 (SMW477)): 30.54% and 44.61% and 49.97%
- Infection Data: Percentage Infection Relative to Appropriate DMSO Control (1 uM, Exp 3 (SMW478)): 92.92% and 83.96% and 93.97%
- Infection Data: Average, Mean (1 uM): 65.01%
- Percentage Infection Relative to Appropriate DMSO Control (5 uM, Exp 1 (SMW454), single wells): 82.33% and 99.01% and 94.32%
- Infection Data: Percentage Infection Relative to Appropriate DMSO Control (5 uM, Exp 1 (SMW475)): 11.41% and 21.71% and 5.92%
- Infection Data: Percentage Infection Relative to Appropriate DMSO Control (5 uM, Exp 2 (SMW477)): 9.13% and 26.77% and 20.94%
- Infection Data: Percentage Infection Relative to Appropriate DMSO Control (5 uM, Exp 3 (SMW478)): 28.65% and 43.74% and 34.06%
- Infection Data: Average, Mean (5 uM): 22.48%
- Percentage Infection Relative to Appropriate DMSO Control (10 uM, Exp 1 (SMW454), single wells): 84.64% and 105.70% and 105.02%
- Infection Data: Percentage Infection Relative to Appropriate DMSO Control (10 uM, Exp 1 (SMW475)): 7.16% and 14.38% and 4.59%
- Infection Data: Percentage Infection Relative to Appropriate DMSO Control (10 uM, Exp 2 (SMW477)): 10.76% and 16.40% and 10.07%
- Infection Data: Percentage Infection Relative to Appropriate DMSO Control (10 uM, Exp 3 (SMW478)): 46.05% and 27.62% and 30.93%
- Infection Data: Average, Mean (10 uM): 18.66%
- Percentage Infection Relative to Appropriate DMSO Control (25 uM, Exp 1 (SMW454), single wells): 54.89% and 58.50% and 60.94%
- Infection Data: Percentage Infection Relative to Appropriate DMSO Control (25 uM, Exp 1 (SMW475)): 0.07% and −0.35% and −1.40%
- Infection Data: Percentage Infection Relative to Appropriate DMSO Control (25 uM, Exp 2 (SMW477)): 1.11% and 0.67% and 1.76%
- Infection Data: Percentage Infection Relative to Appropriate DMSO Control (25 uM, Exp 3 (SMW478)): 3.99% and 4.14% and 2.78%
- Infection Data: Average, Mean (25 uM): 1.42%
- Percentage Infection Relative to Appropriate DMSO Control (50 uM, Exp 1 (SMW454), single wells): 28.95% and 40.45% and 40.98%
- Infection Data: Percentage Infection Relative to Appropriate DMSO Control (50 uM, Exp 1 (SMW475)): −0.48% and −1.48% and 0.34%
- Infection Data: Percentage Infection Relative to Appropriate DMSO Control (50 uM, Exp 2 (SMW477)): 1.36% and 0.07% and 1.60%
- Infection Data: Percentage Infection Relative to Appropriate DMSO Control (50 uM, Exp 3 (SMW478)): 0.69% and 2.33% and 1.45%
- Infection Data: Average, Mean (50 uM): 0.65%
- Infection Data, Average, Mean percentage infection relative to DMSO control (n=4, 1 uM): 65.84% and 39.37% and 49.93% and 57.24%
- Infection Data, Average, Mean percentage infection relative to DMSO control (n=4, 5 uM): 54.32% and 40.70% and 42.82% and 28.04%
- Infection Data, Average, Mean percentage infection relative to DMSO control (n=4, 10 uM): 8.53% and 5.08% and 5.96% and 7.33%
- Infection Data, Average, Mean percentage infection relative to DMSO control (n=4, 25 uM): 11.20% and 7.36% and 4.36% and 11.41%
- Infection Data, Average, Mean percentage infection relative to DMSO control (n=4, 50 uM): 8.04% and 0.83% and 7.39% and 10.06%
- Infection Data, Average, Mean (Average of Exp 1-3, n 9, 1 uM): 79.70%
- Infection Data, Average, Mean (Average of Exp 1-3, n 9, 5 uM): 44.64%
- Infection Data, Average, Mean (Average of Exp 1-3, n 9, 10 uM): 52.11%
- Infection Data, Average, Mean (Average of Exp 1-3, n 9, 25 uM): 19.49%
- Infection Data, Average, Mean (Average of Exp 1-3, n 9, 50 uM): 11.46%
- Percentage Infection Relative to Appropriate DMSO Control, Mean (1 uM): 59.34% and 41.11%
- Percentage Infection Relative to Appropriate DMSO Control, Mean (5 uM): 26.29% and 13.69%
- Percentage Infection Relative to Appropriate DMSO Control, Mean (10 uM): 6.07% and 4.47%
- Percentage Infection Relative to Appropriate DMSO Control, Mean (25 uM): 3.40% and 3.46%
- Percentage Infection Relative to Appropriate DMSO Control, Mean (50 uM): 2.64% and 2.63%
- Infection Data, Percentage Infection Relative to Appropriate DMSO Control (Exp 1 (SMW491), 10 uM): 5.19% and 1.05% and 0.23% and 2.20% and 5.21% and 4.17% and 3.28% and 4.40%
- Percentage Infection Relative to Appropriate DMSO Control (Exp 1 (SMW506), 10 uM, single wells): 6.99% and 10.55% and 9.19% and 3.42%
- Percentage Infection Relative to Appropriate DMSO Control (Exp 1 (SMW506), 25 uM, single wells): 4.49% and 2.30% and 4.05% and 3.63%
- Percentage Infection Relative to Appropriate DMSO Control (Exp 1 (SMW506), 50 uM, single wells): 4.22% and 4.54% and 5.07% and 2.41%
- Percentage Infection Relative to Appropriate DMSO Control (Exp 2 (SMW466), 10 uM): 10.03% and 6.17% and 9.36%
- Percentage Infection Relative to Appropriate DMSO Control (Exp 2 (SMW466), 25 uM): −0.69% and −1.02% and −1.54%
- Percentage Infection Relative to Appropriate DMSO Control (Exp 2 (SMW466), 50 uM): −0.97% and −1.80% and 1.96%
- Infection Data, Percentage Infection Relative to Appropriate DMSO Control (Exp 2 (SMW492), 1 uM): 87.68% and 68.32% and 72.99% and 69.05% and 75.23% and 75.22% and 50.23% and 54.62%
- Infection Data, Percentage Infection Relative to Appropriate DMSO Control (Exp 2 (SMW492), 10 uM): 15.18% and 12.71% and 12.92% and 8.48% and 10.42% and 9.51% and 5.72% and 6.91%
- Percentage Infection Relative to Appropriate DMSO Control (Exp 2 (SMW492), 1 uM, single wells): 34.50% and 31.39% and 22.69% and 24.33%
- Percentage Infection Relative to Appropriate DMSO Control (Exp 2 (SMW492), 5 uM, single wells): 5.38% and 4.98% and 4.24% and 4.87%
- Percentage Infection Relative to Appropriate DMSO Control (Exp 2 (SMW492), 10 uM, single wells): 3.43% and 3.30% and 3.52% and 1.74%
- Percentage Infection Relative to Appropriate DMSO Control (Exp 2 (SMW492), 25 uM, single wells): 4.70% and 2.08% and 5.51% and 0.65%
- Percentage Infection Relative to Appropriate DMSO Control (Exp 2 (SMW492), 50 uM, single wells): 1.27% and 0.52% and 1.57% and 1.49%
